Read-outs that look alike come from different tables or passages of the source.
Assays:
[1] = tested on: eye; conditions: cited from earlier work
[2] = tested on: Epiderm™ Human Tissue Model (EPI-200); experiment: MTT tissue viability assay (MTT ET-50 protocol) on EpiDerm skin cultures; conditions: for Viability (%): relative to H2O negative control
Protocol: Mitigation of skin irritancy induced by sodium dodecyl sulfate (SDS) surfactant dosed with the polymer of Example 11 is assessed in the Epiderm™ Human Tissue Model (EPI-200) bioassay conducted by MatTek Corporation, Ashland, Mass. The MatTek bioassay utilizes human derived epidermal keratinocytes (NHEK) which have been cultured to form a multilayered, highly differentiated model of the human epidermis.
The MTT tissue viability assay measures the NAD(P)H dependent microsomal enzyme reduction of MTT (and to a lesser extent, the succinate dehydrogenase reduction of MTT) after exposure to a treated skin culture test sample for various exposure times. The duration of exposure resulting in a 50% decrease in MTT conversion in test formulation treated EpiDerm™ cultures, relative to control cultures, is determined (ET-50).
Skin tissue culture inserts (Cat. No. EPI-200) are pre-incubated in the wells of 6-well plates containing 0.9 ml of MatTek assay medium (Cat. No. EPI-100-ASY) for 1 hr. at 37° C. in a humidified atmosphere of 5% CO2 in air. The 6-well plates containing the tissue culture inserts are removed from the incubator and the assay media is aspirated from the wells and replaced by an additional aliquot of 0.9 ml of pre-warmed (37° C.) assay media. For each exposure time wells are then dosed (2 repetitions) with 100 μl of the test formulations set forth in Table 10 (3 tissue culture wells are dosed with 100 μl ultra-pure water as a negative control for each of the test candidates). In addition, 100 μl of a positive control formulation (1% Triton X-100 in ultrapure water) is dosed into tissue culture wells (3 repetitions for each exposure time), as well as 3 repetitions of ultrapure water as a negative control. The exposure times of the test formulations, negative control and positive control are set forth below.
MTT assay plates are prepped by preparing a 24-well plate by adding 300 μl of MTT reagent solution to an appropriate number of wells to accommodate the test. The MTT reagent is utilized at a concentration of 1 mg/ml of MTT diluted in Dulbecco's Modified Eagle Medium (DMEM). The MTT/DMEM solution is centrifuged and decanted to remove any precipitate before use.
After exposure times of 60 (1 hr.), 120 (2 hrs.) and 210 (3.5 hrs.) minutes to the test solutions, the tissue cultures are removed from the incubator and thoroughly rinsed (2 times) with Dulbecco's phosphate buffered saline (DPBS) to remove the test material. The negative control is exposed for 4 hours and the positive control is exposed for time periods of 4, 6, 8, and 10 hours. Any remaining rinse media is decanted from the top of the tissue cultures. Each tissue culture insert is transferred to an appropriately labeled well of the 24-well plate containing the MTT reagent solution and placed back in the incubator. After 30 minutes reaction with the MTT reagent, the tissue cultures are removed from the incubator. Each tissue culture insert is removed from its well and the bottom is gently blotted with a lab tissue. The inserts are immersed into a labeled 24-well extraction plate containing 2 ml of isopropanol extractant solution. The 24-well extraction plate is covered with aluminum foil (to protect the samples from light) and placed into a sealable plastic bag to minimize evaporation of the extractant solution. The sealed 24-well extraction plate is set on an orbital shaker and gently shaken for 2 hours at ambient room temperature (approximately 20° C.). […]

sodium laureth-12 sulfate
eye irritation [1]: almost completely non-irritating

Triton X-100
ET-50 (exposure time which reduces tissue viability to 50%) [2]: 5.93 h

CCCCCCCCCCCCOS(=O)(=O)[O-].[Na+] [sodium lauryl sulfate]
eye irritation ([1]; literature statement (Schoenberg, 1979)): significant eye irritation

CCCCCCCCCCCCOS(=O)(=O)[O-].[Na+] [Neat Surfactant, sodium dodecyl sulfate]
Viability (%) ([2]; exposure time 1 hr): 92.3%
Viability (%) ([2]; exposure time 2 hr): 32.3%
Viability (%) ([2]; exposure time 3.5 hr): 16.6%
ET-50 (exposure time which reduces tissue viability to 50%) ([2]; interpolated between exposure times that bracket 50% viability, 100 μl formulation per tissue): 1.63 h
